# The supplement of paper PMC8612539
# Tested on: Pasteurella multocida
# Assay: minimum inhibitory concentration (MIC)
# Description: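 Broth microdilution MIC (Sensititre BOPO7F bovine plate, CLSI methods) of 19 antimicrobials against field isolates of P. multocida, M. haemolytica, H. somni (deep nasopharyngeal swabs) and E. coli, Enterococcus spp. (rectal swabs) from weaned dairy heifers. Incubation 16-24 h at 35 C. MIC is the lowest concentration preventing visible growth. Values with <= or > lie at the tested range limits. Trimethoprim-sulfamethoxazole is given as the trimethoprim component of a 1:19 mixture.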
smiles,measurement,setting,value
CN(C)[C@@H]1C(O)=C(C(N)=O)C(=O)[C@@]2(O)C(O)=C3C(=O)c4c(O)cccc4[C@@](C)(O)[C@H]3C[C@@H]12 [Tetracycline],minimum inhibitory concentration,isolate (source animal id): 10,> 8 µg/mL
same,minimum inhibitory concentration,isolate (source animal id): 11,> 8 µg/mL
same,minimum inhibitory concentration,isolate (source animal id): 12,> 8 µg/mL
same,minimum inhibitory concentration,isolate (source animal id): 19,> 8 µg/mL
same,minimum inhibitory concentration,isolate (source animal id): 23,> 8 µg/mL
same,minimum inhibitory concentration,isolate (source animal id): 26,> 8 µg/mL
same,minimum inhibitory concentration,isolate (source animal id): 98,> 8 µg/mL
same,minimum inhibitory concentration,isolate (source animal id): 104,> 8 µg/mL
same,minimum inhibitory concentration,isolate (source animal id): 115,> 8 µg/mL
same,minimum inhibitory concentration,isolate (source animal id): 117,> 8 µg/mL
same,minimum inhibitory concentration,isolate (source animal id): 118,> 8 µg/mL
same,minimum inhibitory concentration,isolate (source animal id): 121,> 8 µg/mL
same,minimum inhibitory concentration,isolate (source animal id): 124,> 8 µg/mL
same,minimum inhibitory concentration,isolate (source animal id): 125,> 8 µg/mL
same,minimum inhibitory concentration,isolate (source animal id): 128,> 8 µg/mL
same,minimum inhibitory concentration,isolate (source animal id): 131,> 8 µg/mL
same,minimum inhibitory concentration,isolate (source animal id): 135,> 8 µg/mL
same,minimum inhibitory concentration,isolate (source animal id): 136,> 8 µg/mL
same,minimum inhibitory concentration,isolate (source animal id): 140,> 8 µg/mL
same,minimum inhibitory concentration,isolate (source animal id): 144,> 8 µg/mL
same,minimum inhibitory concentration,isolate (source animal id): 146,> 8 µg/mL
same,minimum inhibitory concentration,isolate (source animal id): 150,> 8 µg/mL
same,minimum inhibitory concentration,isolate (source animal id): 151,> 8 µg/mL
same,minimum inhibitory concentration,isolate (source animal id): 153,> 8 µg/mL
same,minimum inhibitory concentration,isolate (source animal id): 155,> 8 µg/mL
same,minimum inhibitory concentration,isolate (source animal id): 157,> 8 µg/mL
same,minimum inhibitory concentration,isolate (source animal id): 160,> 8 µg/mL
same,minimum inhibitory concentration,isolate (source animal id): 164,> 8 µg/mL
same,minimum inhibitory concentration,isolate (source animal id): 165,> 8 µg/mL
same,minimum inhibitory concentration,isolate (source animal id): 167,> 8 µg/mL
same,minimum inhibitory concentration,isolate (source animal id): 168,> 8 µg/mL
same,minimum inhibitory concentration,isolate (source animal id): 169,4 µg/mL
same,minimum inhibitory concentration,isolate (source animal id): 170,8 µg/mL
same,minimum inhibitory concentration,isolate (source animal id): 171,8 µg/mL
same,minimum inhibitory concentration,isolate (source animal id): 172,> 8 µg/mL
same,minimum inhibitory concentration,isolate (source animal id): 173,> 8 µg/mL
same,minimum inhibitory concentration,isolate (source animal id): 174,> 8 µg/mL
same,minimum inhibitory concentration,isolate (source animal id): 175,> 8 µg/mL
same,minimum inhibitory concentration,isolate (source animal id): 176,> 8 µg/mL
same,minimum inhibitory concentration,isolate (source animal id): 177,> 8 µg/mL
same,minimum inhibitory concentration,isolate (source animal id): 178,> 8 µg/mL
same,minimum inhibitory concentration,isolate (source animal id): 179,8 µg/mL
same,minimum inhibitory concentration,isolate (source animal id): 182,> 8 µg/mL
same,minimum inhibitory concentration,isolate (source animal id): 192,> 8 µg/mL
same,minimum inhibitory concentration,isolate (source animal id): 193,> 8 µg/mL
same,minimum inhibitory concentration,isolate (source animal id): 195,> 8 µg/mL
same,minimum inhibitory concentration,isolate (source animal id): 196,> 8 µg/mL
same,minimum inhibitory concentration,isolate (source animal id): 197,> 8 µg/mL
same,minimum inhibitory concentration,isolate (source animal id): 198,> 8 µg/mL
same,minimum inhibitory concentration,isolate (source animal id): 199,8 µg/mL
same,minimum inhibitory concentration,isolate (source animal id): 200,8 µg/mL
same,minimum inhibitory concentration,isolate (source animal id): 201,8 µg/mL
same,minimum inhibitory concentration,isolate (source animal id): 203,> 8 µg/mL
same,minimum inhibitory concentration,isolate (source animal id): 204,> 8 µg/mL
same,minimum inhibitory concentration,isolate (source animal id): 205,> 8 µg/mL
same,minimum inhibitory concentration,isolate (source animal id): 206,> 8 µg/mL
same,minimum inhibitory concentration,isolate (source animal id): 207,> 8 µg/mL
same,minimum inhibitory concentration,isolate (source animal id): 208,8 µg/mL
same,minimum inhibitory concentration,isolate (source animal id): 209,> 8 µg/mL
same,minimum inhibitory concentration,isolate (source animal id): 210,> 8 µg/mL
same,minimum inhibitory concentration,isolate (source animal id): 213,8 µg/mL
same,minimum inhibitory concentration,isolate (source animal id): 216,8 µg/mL
same,minimum inhibitory concentration,isolate (source animal id): 223,> 8 µg/mL
same,minimum inhibitory concentration,isolate (source animal id): 227,> 8 µg/mL
same,minimum inhibitory concentration,isolate (source animal id): 229,> 8 µg/mL
same,minimum inhibitory concentration,isolate (source animal id): 233,> 8 µg/mL
same,minimum inhibitory concentration,isolate (source animal id): 234,> 8 µg/mL
same,minimum inhibitory concentration,isolate (source animal id): 237,> 8 µg/mL
same,minimum inhibitory concentration,isolate (source animal id): 241,> 8 µg/mL
same,minimum inhibitory concentration,isolate (source animal id): 245,> 8 µg/mL
same,minimum inhibitory concentration,isolate (source animal id): 247,> 8 µg/mL
same,minimum inhibitory concentration,isolate (source animal id): 250,> 8 µg/mL
same,minimum inhibitory concentration,isolate (source animal id): 254,> 8 µg/mL
same,minimum inhibitory concentration,isolate (source animal id): 255,> 8 µg/mL
same,minimum inhibitory concentration,isolate (source animal id): 258,> 8 µg/mL
same,minimum inhibitory concentration,isolate (source animal id): 261,> 8 µg/mL
same,minimum inhibitory concentration,isolate (source animal id): 262,> 8 µg/mL
same,minimum inhibitory concentration,isolate (source animal id): 269,8 µg/mL
same,minimum inhibitory concentration,isolate (source animal id): 270,> 8 µg/mL
same,minimum inhibitory concentration,isolate (source animal id): 274,> 8 µg/mL
same,minimum inhibitory concentration,isolate (source animal id): 275,> 8 µg/mL
same,minimum inhibitory concentration,isolate (source animal id): 276,> 8 µg/mL
same,minimum inhibitory concentration,isolate (source animal id): 277,8 µg/mL
same,minimum inhibitory concentration,isolate (source animal id): 278,> 8 µg/mL
same,minimum inhibitory concentration,isolate (source animal id): 279,> 8 µg/mL
same,minimum inhibitory concentration,isolate (source animal id): 280,> 8 µg/mL
same,minimum inhibitory concentration,isolate (source animal id): 284,> 8 µg/mL
same,minimum inhibitory concentration,isolate (source animal id): 285,> 8 µg/mL
same,minimum inhibitory concentration,isolate (source animal id): 287,> 8 µg/mL
same,minimum inhibitory concentration,isolate (source animal id): 290,> 8 µg/mL
same,minimum inhibitory concentration,isolate (source animal id): 294,> 8 µg/mL
same,minimum inhibitory concentration,isolate (source animal id): 295,> 8 µg/mL
same,minimum inhibitory concentration,isolate (source animal id): 296,> 8 µg/mL
same,minimum inhibitory concentration,isolate (source animal id): 307,> 8 µg/mL
same,minimum inhibitory concentration,isolate (source animal id): 310,> 8 µg/mL
same,minimum inhibitory concentration,isolate (source animal id): 311,> 8 µg/mL
same,minimum inhibitory concentration,isolate (source animal id): 312,> 8 µg/mL
same,minimum inhibitory concentration,isolate (source animal id): 313,> 8 µg/mL
same,minimum inhibitory concentration,isolate (source animal id): 315,> 8 µg/mL
same,minimum inhibitory concentration,isolate (source animal id): 316,> 8 µg/mL
